Data: patent publication US8263638B2, “Dosing regimens for ion channel modulating compounds” (priority 2004, dated 2012)

Key:
[1] = test system: atrial fibrillation of 3 hours to 45 days; experiment: Conversion of recent onset atrial fibrillation to sinus rhythm (Example 3); type: in vivo, human; conditions: for Number of Patients Converted to Sinus Rhythm / Patients (%) Converted to Sinus Rhythm: within 90 minutes
Experimental: The primary endpoint of this study was the proportion of patients with atrial fibrillation duration of 3 hours to 7 days who had treatment-induced conversion to sinus rhythm within 90 minutes of treatment. Secondary endpoints included the time-to-conversion of atrial fibrillation to sinus rhythm in patients with atrial fibrillation duration of 3 hours to 7 days; the proportion of patients with atrial fibrillation of 8 to 45 days who had treatment-induced conversion to sinus rhythm within 90 minutes of treatment, and the proportion of patients in the entire group with atrial fibrillation of 3 hours to 45 days who had treatment-induced conversion to sinus rhythm within 90 minutes of treatment.
336 patients were randomized in a 2:1 ratio of COMPOUND A to placebo (221 patients received COMPOUND A and 115 patients received placebo) and stratified by atrial fibrillation duration of 3 hours to 7 days and 8 to 45 days.
A first 10-minute infusion of a test compound (placebo or 3 mg/kg of COMPOUND A) was given to each patient. A second 10-minute infusion (placebo or 2 mg/kg of COMPOUND A) was given 15 minutes later if atrial fibrillation was not terminated. Safety was assessed by the incidence of adverse events, vital signs, laboratory data, ECG and holter monitoring.

[2] = COMPOUND A plasma concentrations in acute AF study (Example 2); type: in vivo, human
Experimental: A Holter rhythm strip continuously monitored ECG, vital signs (blood pressure and heart rate, BP and HR, respectively) and O2 saturation were recorded every 2 min from the start of infusion to 5 min after, as well as at 15, 30, 60, 120, 240, 360, and 480 min and at discharge and one-week follow-up. Twelve-lead ECGs were obtained before dosing and every minute during infusion to 5 min after, as well as at 15, 30, 60, 120, 240, 360, and 480 min and at discharge, 24 h and one-week follow-up, and at the time of arrhythmia termination or significant rhythm changes. Venous blood samples were drawn for COMPOUND A plasma concentrations at 0, 15, 30, 120, 240, 480 min discharge and at AF termination or significant adverse events.
COMPOUND A doses were infused over 10 min as indicated in the text. Initially a 2 mg/kg infusion was given and if required an additional 3 mg/kg was infused 30 min later in the RSD-2 group. Time is shown relative to the end of the first infusion (T1).

[3] = Plasma concentrations of COMPOUND A in electrophysiology study (Example 1); type: in vivo; conditions: human, intravenous, T = 45 min
Experimental: Blood samples for COMPOUND A concentrations were drawn at 0, 10 and 45 minutes after the start of drug infusion, and at discharge the next day.

[4] = test system: atrial fibrillation duration from 3 hours to 45 days; experiment: Atrial Arrhythmia Conversion Trial 1, Phase III (Example 6); type: in vivo, human; conditions: for median time to conversion: responders
Experimental: This study was conducted to assess the efficacy and safety of COMPOUND A in the conversion of atrial fibrillation to sinus rhythm in humans. The study was a randomized, double-blind, placebo-controlled Phase III study.
Patients were randomized in a 2:1 ratio (COMPOUND A:placebo) and stratified by atrial fibrillation duration. The entire group of patients (pts) had atrial fibrillation duration from 3 hours to 45 days. One subgroup had atrial fibrillation duration from 3 hours to 7 days. Another subgroup had atrial fibrillation duration from 8 days to 45 days.
The primary endpoint of the study was the proportion of patients with atrial fibrillation duration of 3 hours to 7 days who had treatment-induced conversion of atrial fibrillation to sinus rhythm with 90 minutes. Secondary endpoints include the time-to-conversion of atrial fibrillation to sinus rhythm in patients with atrial fibrillation of 3 hours to 7 days and the proportion of patients with termination of atrial fibrillation within 90 minutes in the subgroup of patients with 8 days to 45 days of atrial fibrillation duration and in the entire group of patients with 3 hours to 45 days of atrial fibrillation duration.
Dosing was as follows: Placebo or 3.0 mg/kg of COMPOUND A was administered by infusion over a 10 minute period, followed by a 15-minute observation period. If atrial fibrillation was not terminated, placebo or 2.0 mg/kg of COMPOUND A was adminstered by infusion over a 10 minute period.
The patient population was randomized (n=[…]). […] There were 220 patients in the subgroup having 3 hours to 7 days atrial fibrillation. Of these 220 patients, 75 received placebo and 145 received COMPOUND A. There were 116 patients in the subgroup having 8 days to 45 days atrial fibrillation. Of these 116 patients, 40 received placebo and 76 received COMPOUND A.

[5] = 30-day interval following administration
[6] = AF 8-45 days, 3 mg/kg then 2 mg/kg
[7] = AF 3 hr-7 days, 3 mg/kg then 2 mg/kg
[8] = patients that received only the 2 mg/kg infusion
[9] = 30-day follow-up period after dosing, n = 221
[10] = 24 hour period post-dosing, holter, n = 221
[11] = 24 hour time period following dosing, n = 221
[12] = non-responders with attempted cardioversion

Q: For `COc1ccc(CCO[C@@H]2CCCC[C@H]2N2CC[C@@H](O)C2)cc1OC.Cl` [COMPOUND A, (1R,2R)-2-[(3R)-hydroxypyrrolidinyl]-1-(3,4-dimethoxyphenethoxy)cyclohexane monohydrochloride], which “patients with recurrence of atrial fibrillation (serious adverse event)” value [1, 5] is on record?
A: Its value is 6%.

Q: And the “patients with serious adverse events” value [1, 5]?
A: The value was 13%.

Q: What about the “converted patients relapsed within 24 hrs of administration” value ([1]; 3 hours to 7 days group converters) of the same compound?
A: Its value is “one”.

Q: And the “median time to conversion” value ([1]; 3 hours to 7 days group, seventy-five converters)?
A: The value was “eleven”.

Q: And the “Number of Patients Converted to Sinus Rhythm” value (“Number of Patients Converted” below) [1, 6]?
A: The value was 6.

Q: What about the “Patients (%) Converted to Sinus Rhythm” value [1, 6] of the same compound?
A: The value was 8%.

Q: What about the “Number of Patients Converted” value [1, 7] of the same compound?
A: Its value is 75.

Q: What about the “Patients (%) Converted to Sinus Rhythm” value [1, 7] of the same compound?
A: Its value is 52%.

Q: And the “Number of Patients Converted” value ([1]; Entire Group, AF 3 hr-45 days)?
A: The value was 83.

Q: What about the “Patients (%) Converted to Sinus Rhythm” value ([1]; Entire Group, AF 3 hr-45 days) of the same compound?
A: Its value is 38%.

Q: And the “drug-related Torsades de Pointes” value ([1]; in vivo)?
A: The value was “no cases”.

Q: And the “patients with transient alteration in taste” value ([1]; in vivo)?
A: The value was 30%.

Q: And the “Plasma drug levels at 24 h post-infusion (below the limit of detection)” value ([2]; RSD-1, majority of patients)?
A: Its value is less than 5 ng/mL.

Q: And the “mean plasma levels at 24 h” value ([2]; RSD-2 group)?
A: Its value is 17 ng/mL.

Q: What about the “Mean peak plasma levels” value ([2]; patients that received both 0.5 and 1.0 mg/kg) of the same compound?
A: The value was 1.9 µg/mL.

Q: What about the “Mean peak plasma levels” value ([2]; patients that received both the 2.0 and 3.0 mg/kg infusions) of the same compound?
A: Its value is 5.8 µg/mL.

Q: And the “mean peak plasma levels at the end of infusion” value [2, 8]?
A: The value was 2.6 µg/mL.

Q: And the “mean terminal elimination half life” value [2, 8]?
A: Its value is 3.1 h.

Q: And the “median plasma level at the time of AF conversion” value [2, 8]?
A: The value was 1.3 µg/mL.

Q: And the concentration at 45 min ([3]; Dose Level 1, 2 mg/kg)?
A: Its concentration at 45 min is 1080 ± 279 ng/mL.

Q: And the concentration at 45 min ([3]; Dose Level 2, 4 mg/kg)?
A: Its concentration at 45 min is 2170 ± 422 ng/mL.

Q: What about the “serious adverse events: Cardiac disorders (%)” value [4, 9] of the same compound?
A: The value was 10.0%.

Q: What about the “serious adverse events: Cardiac disorders (number)” value [4, 9] of the same compound?
A: Its value is 22.

Q: And the “serious adverse events: Infections and infestations (%)” value [4, 9]?
A: Its value is 1.4%.

Q: What about the “serious adverse events: Infections and infestations (number)” value [4, 9] of the same compound?
A: The value was 3.

Q: And the “serious adverse events: Nervous system disorders (%)” value [4, 9]?
A: The value was 0.0%.

Q: And the “serious adverse events: Nervous system disorders (number)” value [4, 9]?
A: Its value is 0.

Q: And the “serious adverse events: Respiratory, thoracic and mediastinal disorders (%)” value [4, 9]?
A: Its value is 1.8%.

Q: And the “serious adverse events: Respiratory, thoracic and mediastinal disorders (number)” value [4, 9]?
A: Its value is 4.

Q: And the “serious adverse events: Total (%)” value [4, 9]?
A: Its value is 13.1%.

Q: And the “serious adverse events: Total (number)” value [4, 9]?
A: The value was 29.

Q: What about the “serious adverse events: Vascular disorders (%)” value [4, 9] of the same compound?
A: Its value is 1.4%.

Q: What about the “serious adverse events: Vascular disorders (number)” value [4, 9] of the same compound?
A: The value was 3.

Q: What about the “Monomorphic sustained ventricular tachycardia (%)” value [4, 10] of the same compound?
A: The value was 0.0%.

Q: What about the “Monomorphic sustained ventricular tachycardia (number)” value [4, 10] of the same compound?
A: The value was 0.

Q: What about the “Monomorphic unsustained aberrant condition (%)” value [4, 10] of the same compound?
A: The value was 1.4%.

Q: What about the “Monomorphic unsustained aberrant condition (number)” value [4, 10] of the same compound?
A: Its value is 3.

Q: What about the “Monomorphic unsustained ventricular tachycardia (%)” value [4, 10] of the same compound?
A: Its value is 0.9%.

Q: What about the “Monomorphic unsustained ventricular tachycardia (number)” value [4, 10] of the same compound?
A: Its value is 2.

Q: What about the “Polymorphic sustained ventricular tachycardia (%)” value [4, 10] of the same compound?
A: The value was 0.0%.

Q: And the “Polymorphic sustained ventricular tachycardia (number)” value [4, 10]?
A: The value was 0.

Q: And the “Polymorphic unsustained aberrant condition (%)” value [4, 10]?
A: Its value is 0.0%.

Q: And the “Polymorphic unsustained aberrant condition (number)” value [4, 10]?
A: The value was 0.

Q: And the “Polymorphic unsustained ventricular tachycardia (%)” value [4, 10]?
A: The value was 0.0%.

Q: And the “Polymorphic unsustained ventricular tachycardia (number)” value [4, 10]?
A: Its value is 0.

Q: And the “Torsades de Pointes (%)” value [4, 10]?
A: Its value is 0.0%.

Q: What about the “Torsades de Pointes (number)” value [4, 10] of the same compound?
A: Its value is 0.

Q: What about the “Ventricular Rhythm >=5 beats: Total (%)” value [4, 10] of the same compound?
A: The value was 2.3%.

Q: And the “Ventricular Rhythm >=5 beats: Total (number)” value [4, 10]?
A: The value was 5.

Q: And the “Ventricular escape rhythm (%)” value [4, 10]?
A: The value was 0.0%.

Q: What about the “Ventricular escape rhythm (number)” value [4, 10] of the same compound?
A: Its value is 0.

Q: What about the “treatment-emergent adverse event: Atrial fibrillation (%)” value [4, 11] of the same compound?
A: The value was 4%.

Q: What about the “treatment-emergent adverse event: Atrial fibrillation (number)” value [4, 11] of the same compound?
A: The value was 8.

Q: And the “treatment-emergent adverse event: Cough (%)” value [4, 11]?
A: The value was 5%.

Q: And the “treatment-emergent adverse event: Cough (number)” value [4, 11]?
A: Its value is 11.

Q: And the “treatment-emergent adverse event: Dysgeusia (%)” value [4, 11]?
A: Its value is 30%.

Q: And the “treatment-emergent adverse event: Dysgeusia (number)” value [4, 11]?
A: The value was 66.

Q: What about the “treatment-emergent adverse event: Hypotension (%)” value [4, 11] of the same compound?
A: Its value is 6%.

Q: And the “treatment-emergent adverse event: Hypotension (number)” value [4, 11]?
A: Its value is 14.

Q: And the “treatment-emergent adverse event: Nausea (%)” value [4, 11]?
A: The value was 9%.

Q: And the “treatment-emergent adverse event: Nausea (number)” value [4, 11]?
A: Its value is 20.

Q: What about the “treatment-emergent adverse event: Paraesthesia (%)” value [4, 11] of the same compound?
A: The value was 11%.

Q: And the “treatment-emergent adverse event: Paraesthesia (number)” value [4, 11]?
A: Its value is 24.

Q: What about the “treatment-emergent adverse event: Pruritus (%)” value [4, 11] of the same compound?
A: Its value is 6%.

Q: And the “treatment-emergent adverse event: Pruritus (number)” value [4, 11]?
A: The value was 13.

Q: And the “treatment-emergent adverse event: Sneezing (%)” value [4, 11]?
A: The value was 16%.

Q: What about the “treatment-emergent adverse event: Sneezing (number)” value [4, 11] of the same compound?
A: The value was 36.

Q: What about the “responders converted after the first dosing” value ([4]; both the short duration subgroup and the entire group) of the same compound?
A: Its value is 76%.

Q: What about the “responders relapsed into atrial fibrillation in the first 24 hours post-dosing” value ([4]; in vivo) of the same compound?
A: The value was “one”.

Q: And the “Electrical cardioversion was attempted (%)” value ([4]; n = 221)?
A: The value was 43%.

Q: And the “Electrical cardioversion was attempted (number)” value ([4]; n = 221)?
A: Its value is 96.

Q: And the “Successfully converted by electrical cardioversion (%)” value [4, 12]?
A: Its value is 85%.

Q: What about the “Successfully converted by electrical cardioversion (number)” value [4, 12] of the same compound?
A: Its value is 82.

Q: What about the “median time to conversion” value ([4]; entire group (3 hrs-45 days atrial fibrillation)) of the same compound?
A: The value was 11.5 min.

Q: What about the “median time to conversion” value ([4]; short duration subgroup (3 hrs-7 days atrial fibrillation)) of the same compound?
A: Its value is 11 min.
